Values of other authors in patent US20210000953A1, “USE OF IMMUNE CHECKPOINT INHIBITORS IN CENTRAL NERVOUS SYSTEMS NEOPLASMS” (Bristol-Myers Squibb Company, priority 2014, published 2021).

Key:
recurrent GBM = conditions: single agent, relapsed setting; cited from earlier work
[1] = in vivo; cited from earlier work
previously treated GBM = conditions: AVF3708g, cited from earlier work
[2] = tested on: previously treated gliomas; conditions: NCI 06-C-0064E, cited from earlier work
newly diagnosed GBM = conditions: cited from earlier work

Molecule: CCc1c2c(nc3ccc(OC(=O)N4CCC(N5CCCCC5)CC4)cc13)-c1cc3c(c(=O)n1C2)COC(=O)[C@]3(O)CC [irinotecan]
- Response rates (recurrent GBM): ≤ 15%

Molecule: Cn1nnc2c(C(N)=O)ncn2c1=O [temozolomide]
- Terminal half-life [1]: 1.2 h

Molecule: bevacizumab
- Responses, % of patients (previously treated GBM; WHO radiographic criteria, 95% CI:17.0%, 36.1%): 25.9%
- Median duration of response (previously treated GBM; 95% CI: 3.0, 5.7 months): 4.2 months
- Objective responses ([2]; 56 patients with high-grade glioma, 95% CI, 10.9%, 31.3%): 19.6%
- Median duration of response ([2]; 95% CI: 2.4, 17.4): 3.9 months
- Cognitive function and quality of life (newly diagnosed GBM; in vivo): reduced cognitive function and quality of life
- Overall survival (newly diagnosed GBM; newly diagnosed GBM, above standard of care (radiotherapy plus temozolomide)): does not significantly increase overall survival
- Progression-free survival (newly diagnosed GBM; newly diagnosed GBM, with radiotherapy plus temozolomide): increases progression-free survival
